# Values quoted from earlier work, collected in patent US8047146B2, “Subsurface soil injection apparatus and method” (priority 2001, dated 2011).
# Assays:
# [1] = rapidly photodegrades in light
smiles,measurement,setting,value
"CI [Iodomethane, iodomethane]",solubility in water,,14.2 mg/mL
same,lifetime in the atmosphere,[1],1.5 to 4 days
